In patent US10368545B2, “Substituted 2-thioimidazolylcarboxamides as pesticides” (BAYER CROPSCIENCE AKTIENGESELLSCHAFT, priority 2015, dated 2019):
Like-named read-outs stand apart in the source and are kept apart here. Values belong to the compound of their own block, whether it stands above or below them.

Assays:
[1] = log P by HPLC on reversed-phase C18 columns (OECD Guideline 117); format: physicochemical
Protocol: The log P values were determined in accordance with OECD Guideline 117 (EC Directive 92/69/EEC) by HPLC (high-performance liquid chromatography) using reversed-phase (RP) columns (C18), by the following methods:
[a] The LC-MS determination in the acidic range was carried out at pH 2.7 with 0.1% aqueous formic acid and acetonitrile (contains 0.1% formic acid) as mobile phases; linear gradient from 10% acetonitrile to 95% acetonitrile.
[b] LC-MS determination in the neutral range was carried out at pH 7.8 with 0.001 molar aqueous ammonium hydrogencarbonate solution and acetonitrile as mobile phases; linear gradient from 10% acetonitrile to 95% acetonitrile.

[2] = system: green peach aphid (Myzus persicae); test: Myzus persicae spray test (Chinese cabbage leaf discs); format: in vivo; conditions: for pest or weed control at 500 g/ha: Myzus persicae, foliar, read-out: efficacy (aphids killed)
Protocol: Myzus persicae—Spray Test
Solvent: 78 parts by weight of acetone • • 1.5 parts by weight of dimethylformamide
(§1) Emulsifier: alkylaryl polyglycol ether
(§2) To produce a suitable active compound preparation, 1 part by weight of active compound is dissolved using the stated parts by weight of solvent and made up with water containing an emulsifier concentration of 1000 ppm until the desired concentration is attained. To produce further test concentrations, the preparation is diluted with emulsifier-containing water.
Discs of Chinese cabbage leaves (Brassica pekinensis) infested by all stages of the green peach aphid (Myzus persicae) are sprayed with an active compound preparation of the desired concentration.
After 5 or 6 days, the efficacy in % is determined. 100% means that all the aphids were killed; 0% means that no aphids were killed.

[3] = system: green peach aphid (Myzus persicae); test: Contrasting example: Myzus persicae spray test (MYZUPE); format: in vivo; conditions: for pest or weed control at 100 g/ha: Myzus persicae, 144 h, read-out: % efficacy
Protocol: Myzus persicae—Spray Test (MYZUPE)
Solvents: 78.0 parts by weight of acetone • • 1.5 parts by weight of dimethylformamide
as §1, §2
Discs of Chinese cabbage leaves (Brassica pekinensis), infested by all stages of the green peach aphid (Myzus persicae) are sprayed with an active compound preparation of the desired concentration.
After the desired period of time, the efficacy in % is determined. 100% means that all aphids were killed; 0% means that no aphids were killed.

[4] = application rate 500 g/ha, after 5 or 6 days, Chinese cabbage leaf discs
[5] = reversed-phase C18 HPLC column, pH 2.7, method [a], read-out: logP[a]
[6] = reversed-phase C18 HPLC column, pH 7.8, method [b], read-out: logP[b]

SMILES: CN(C(=O)c1cnc(SC(F)(F)F)n1C)c1cccnc1 [I-A-37]
- chromatographic logP [1, 5]: 1.29
- chromatographic logP [1, 6]: 1.45
- pest or weed control at 500 g/ha [2]: 100%
- pest or weed control at 100 g/ha [3]: 100%

SMILES: CN(C(=O)c1cnc(SC(F)F)n1C)c1cccnc1 [I-A-38]
- chromatographic logP ([1]; pH 2.7, method [a], read-out: logP[a]): 0.91
- chromatographic logP ([1]; pH 7.8, method [b], read-out: logP[b]): 1.17
- pest or weed control at 500 g/ha [2]: 90%
- pest or weed control at 100 g/ha [3]: 70%

SMILES: CCS(=O)(=O)c1ncc(C(=O)N(C)c2cccnc2)n1C [I-A-40]
- logP[a] ([1]; method [a]): 0.68
- logP[b] ([1]; method [b]): 0.88
- efficacy (aphids killed) [2, 4]: 100%
- % efficacy ([3]; MYZUPE, 100 g ai/ha, 6 dat): 90%

SMILES: CN(C(=O)c1cnc(SCC(F)(F)C(F)(F)Cl)n1C)c1cccnc1 [I-A-46]
- logP[a] ([1]; method [a]): 2.09
- logP[b] ([1]; method [b]): 2.17
- efficacy (aphids killed) [2, 4]: 100%
- % efficacy ([3]; MYZUPE, 100 g ai/ha, 5 dat): 90%

SMILES: CN(C(=O)c1cnc(SCCC(F)(F)F)n1C)c1cccnc1 [I-A-47]
- logP[a] ([1]; method [a]): 1.65
- logP[b] ([1]; method [b]): 1.84
- efficacy (aphids killed) [2, 4]: 100%
- % efficacy ([3]; MYZUPE, 100 g ai/ha, 5 dat): 90%

SMILES: CN(C(=O)c1cnc(SCCCF)n1C)c1cccnc1 [I-A-48]
- logP[a] ([1]; method [a]): 1.11
- logP[b] ([1]; method [b]): 1.40
- efficacy (aphids killed) [2, 4]: 100%
- % efficacy ([3]; MYZUPE, 100 g ai/ha, 5 dat): 90%

SMILES: CN(C(=O)c1cnc(SCC(F)(F)C(F)F)n1C)c1cccnc1 [I-A-49]
- logP[a] ([1]; method [a]): 1.55
- logP[b] ([1]; method [b]): 1.71
- efficacy (aphids killed) [2, 4]: 100%
- % efficacy ([3]; MYZUPE, 100 g ai/ha, 5 dat): 90%

SMILES: CN(C(=O)c1cnc(SCCSCC(F)(F)F)n1C)c1cccnc1 [I-A-50]
- logP[a] ([1]; method [a]): 1.94
- logP[b] ([1]; method [b]): 2.10
- efficacy (aphids killed) [2, 4]: 100%
- % efficacy ([3]; MYZUPE, 100 g ai/ha, 5 dat): 100%

SMILES: CN(C(=O)c1cnc(SC2CCSCC2)n1C)c1cccnc1 [I-A-51]
- logP[a] ([1]; method [a]): 1.47
- logP[b] ([1]; method [b]): 1.73
- efficacy (aphids killed) [2, 4]: 100%
- % efficacy ([3]; MYZUPE, 100 g ai/ha, 5 dat): 100%

SMILES: CN(C(=O)c1cnc(SC2CCOCC2)n1C)c1cccnc1 [I-A-52]
- logP[a] ([1]; method [a]): 0.90
- logP[b] ([1]; method [b]): 1.25
- efficacy (aphids killed) [2, 4]: 100%
- % efficacy ([3]; MYZUPE, 100 g ai/ha, 5 dat): 100%

SMILES: CC(C)CCSc1ncc(C(=O)N(C)c2cccnc2)n1C [I-A-53]
- logP[a] ([1]; method [a]): 2.68
- logP[b] ([1]; method [b]): 2.76
- efficacy (aphids killed) [2, 4]: 100%
- % efficacy ([3]; MYZUPE, 100 g ai/ha, 5 dat): 100%

SMILES: CN(C(=O)c1cnc(SC2COC2)n1C)c1cccnc1 [I-A-54]
- logP[a] ([1]; method [a]): 0.63
- logP[b] ([1]; method [b]): 0.98
- efficacy (aphids killed) [2, 4]: 100%
- % efficacy ([3]; MYZUPE, 100 g ai/ha, 5 dat): 90%

SMILES: CN(C(=O)c1cnc(S(=O)(=O)c2ccc(F)cc2)n1C)c1cccnc1 [I-A-82]
- logP[a] ([1]; method [a]): 1.53
- logP[b] ([1]; method [b]): 1.62
- efficacy (aphids killed) [2, 4]: 90%
- % efficacy ([3]; MYZUPE, 100 g ai/ha, 6 dat): 90%

SMILES: CN(C(=O)c1cnc([S+]([O-])c2ccc(F)cc2)n1C)c1cccnc1 (stereo not shown) [I-A-84]
- logP[a] ([1]; method [a]): 1.22
- logP[b] ([1]; method [b]): 1.27
- efficacy (aphids killed) [2, 4]: 90%
- % efficacy ([3]; MYZUPE, 100 g ai/ha, 6 dat): 70%

SMILES: CN(C(=O)c1cnc([S+]([O-])c2ccccn2)n1C)c1cccnc1 (stereo not shown) [I-A-86]
- logP[a] ([1]; method [a]): 0.59
- logP[b] ([1]; method [b]): 0.80
- efficacy (aphids killed) [2, 4]: 90%
- % efficacy ([3]; MYZUPE, 100 g ai/ha, 6 dat): 90%

SMILES: CN(C(=O)c1cnc([S+]([O-])c2ccccc2)n1C)c1cccnc1 (stereo not shown) [I-A-87]
- logP[a] ([1]; method [a]): 1.04
- logP[b] ([1]; method [b]): 1.20
- efficacy (aphids killed) [2, 4]: 90%
- % efficacy ([3]; MYZUPE, 100 g ai/ha, 6 dat): 90%

SMILES: CN(C(=O)c1cnc([S+]([O-])c2cccc(C(F)(F)F)c2)n1C)c1ccc[n+]([O-])c1 (stereo not shown) [I-A-95]
- logP[a] ([1]; method [a]): 1.41
- logP[b] ([1]; method [b]): 1.39
- efficacy (aphids killed) [2, 4]: 100%
- % efficacy ([3]; MYZUPE, 100 g ai/ha, 5 dat): 90%

SMILES: CN(C(=O)c1cnc([S+]([O-])c2cccc(C(F)(F)F)c2)n1C)c1cccnc1 (stereo not shown) [I-A-96]
- logP[a] ([1]; method [a]): 1.74
- logP[b] ([1]; method [b]): 1.80
- efficacy (aphids killed) [2, 4]: 100%
- % efficacy ([3]; MYZUPE, 100 g ai/ha, 5 dat): 90%

SMILES: CN(C(=O)c1cnc([S+]([O-])c2ncccn2)n1C)c1cccnc1 (stereo not shown) [I-A-97]
- logP[a] ([1]; method [a]): 0.45
- logP[b] ([1]; method [b]): 0.48
- efficacy (aphids killed) [2, 4]: 90%
- % efficacy ([3]; MYZUPE, 100 g ai/ha, 6 dat): 70%

Now from value to compound, other results behind:

- logP[a] ([1]; method [a]): 0.95
- logP[b] ([1]; method [b]): 1.31
SMILES: CCSc1ncc(C(=O)N(C)c2cccnc2)n1C [I-A-36]
- efficacy (aphids killed) [2, 4]: 90%
- % efficacy ([3]; MYZUPE, 100 g ai/ha, 6 dat): 90%

- chromatographic logP [1, 5]: 0.54
- chromatographic logP [1, 6]: 1.04
SMILES: CSc1ncc(C(=O)N(C)c2cccnc2)n1C [I-A-45]
- pest or weed control at 500 g/ha [2, 4]: 100%
- pest or weed control at 100 g/ha ([3]; MYZUPE, 100 g ai/ha, 6 dat): 90%

- logP[a] ([1]; method [a]): 1.62
- logP[b] ([1]; method [b]): 1.79
SMILES: COc1ccc(Sc2ncc(C(=O)N(C)c3cccnc3)n2C)cc1 [I-A-58]
- efficacy (aphids killed) [2, 4]: 90%
- % efficacy ([3]; MYZUPE, 100 g ai/ha, 6 dat): 70%

- logP[a] ([1]; method [a]): 1.55
- logP[b] ([1]; method [b]): 2.11
SMILES: CN(C)c1ccc(Sc2ncc(C(=O)N(C)c3cccnc3)n2C)cc1 [I-A-59]
- efficacy (aphids killed) [2, 4]: 90%
- % efficacy ([3]; MYZUPE, 100 g ai/ha, 6 dat): 90%

- logP[a] ([1]; method [a]): 2.55
- logP[b] ([1]; method [b]): 2.58
SMILES: CN(C(=O)c1cnc(Sc2cc(Cl)ccc2Cl)n1C)c1cccnc1 [I-A-60]
- efficacy (aphids killed) [2, 4]: 90%
- % efficacy ([3]; MYZUPE, 100 g ai/ha, 6 dat): 70%

- chromatographic logP [1, 5]: 1.66
- chromatographic logP [1, 6]: 1.87
SMILES: CN(C(=O)c1cnc(Sc2ccc(F)cc2)n1C)c1cccnc1 [I-A-62]
- pest or weed control at 500 g/ha [2, 4]: 90%
- pest or weed control at 100 g/ha ([3]; MYZUPE, 100 g ai/ha, 6 dat): 70%

- logP[a] ([1]; method [a]): 2.63
- logP[b] ([1]; method [b]): 2.71
SMILES: CN(C(=O)c1cnc(Sc2ccc(Cl)c(C(F)(F)F)c2)n1C)c1cccnc1 [I-A-64]
- efficacy (aphids killed) [2, 4]: 90%
- % efficacy ([3]; MYZUPE, 100 g ai/ha, 6 dat): 70%

- logP[a] ([1]; method [a]): 1.01
- logP[b] ([1]; method [b]): 1.18
SMILES: CN(C(=O)c1cnc(Sc2ccccn2)n1C)c1cccnc1 [I-A-65]
- efficacy (aphids killed) [2, 4]: 100%
- % efficacy ([3]; MYZUPE, 100 g ai/ha, 6 dat): 100%

- logP[a] ([1]; method [a]): 1.56
- logP[b] ([1]; method [b]): 1.63
SMILES: CN(C(=O)c1cnc(Sc2ccccc2S(=O)(=O)N(C)C)n1C)c1cccnc1 [I-A-69]
- efficacy (aphids killed) [2, 4]: 100%
- % efficacy ([3]; MYZUPE, 100 g ai/ha, 6 dat): 70%

- logP[a] ([1]; method [a]): 1.45
- logP[b] ([1]; method [b]): 1.52
SMILES: CN(C(=O)c1cnc(Sc2ccc(Cl)nc2)n1C)c1cccnc1 [I-A-70]
- efficacy (aphids killed) [2, 4]: 100%
- % efficacy ([3]; MYZUPE, 100 g ai/ha, 6 dat): 70%

- logP[a] ([1]; method [a]): 1.68
- logP[b] ([1]; method [b]): 1.78
SMILES: CN(C(=O)c1cnc(Sc2ccccc2F)n1C)c1cccnc1 [I-A-71]
- efficacy (aphids killed) [2, 4]: 100%
- % efficacy ([3]; MYZUPE, 100 g ai/ha, 6 dat): 70%

- logP[a] ([1]; method [a]): 1.18
- logP[b] ([1]; method [b]): 1.39
SMILES: CN(C(=O)c1cnc(Sc2ccc(F)cn2)n1C)c1cccnc1 [I-A-94]
- efficacy (aphids killed) [2, 4]: 100%
- % efficacy ([3]; MYZUPE, 100 g ai/ha, 6 dat): 90%

- logP[a] ([1]; method [a]): 1.58
SMILES: CN(C(=O)c1cnc(Sc2nccc(C(F)(F)F)n2)n1C)c1cccnc1 [I-A-100]
- efficacy (aphids killed) [2, 4]: 90%
- % efficacy ([3]; MYZUPE, 100 g ai/ha, 6 dat): 90%

- logP[a] ([1]; method [a]): 1.00
SMILES: Cc1ccnc(Sc2ncc(C(=O)N(C)c3cccnc3)n2C)n1 [I-A-101]
- efficacy (aphids killed) [2, 4]: 100%
- % efficacy ([3]; MYZUPE, 100 g ai/ha, 6 dat): 90%
